# In US11118065B2, “Fluorenylaminoketone photoinitiator, preparation method thereof, and UV photocurable composition containing same” (CHANGZHOU TRONLY ADVANCED ELECTRONIC MATERIALS CO., LTD., priority 2017, dated 2021):
# Test: Test of solubility property
# Conditions: for HDDA (g/100 g): largest weight dissolved in 100 g of 1,6-hexanediol diacrylate (HDDA) at 20° C.; for Acetone (g/100 g): largest weight dissolved in 100 g of acetone at 20° C.
SMILES,HDDA (g/100 g),Acetone (g/100 g),"solubility (in the UV curing ink formulation, about 10% of butanone solvent required to dissolve completely)"
C=CCC1(CC=C)c2cc(OC)ccc2-c2ccc(C(=O)C(C)(C)N3CCOCC3)cc21 [Compound 4],>15,>30,
CCCCC1(CCCC)c2ccccc2-c2ccc(C(=O)C(C)(C)N3CCOCC3)cc21 [Compound 5],>15,>30,
CCCCC1(CCCC)c2cc(C(=O)c3ccccc3)ccc2-c2ccc(C(=O)C(C)(C)N3CCOCC3)cc21 [Compound 9],>15,>30,
CCCCN(CCCC)c1ccc2c(c1)C(C)(C)c1cc(C(=O)C(CC)(Cc3ccccc3)N(C)C)ccc1-2 (stereo not shown) [Compound 42],>15,>30,
CCCC1(CCC)c2cc(C(=O)C(CC)(Cc3ccccc3)N(C)C)ccc2-c2ccc(N3CCCCC3)cc21 (stereo not shown) [Compound 43],>15,>30,
CCC(Cc1ccccc1)(C(=O)c1ccc2c(c1)C(C)(C)c1cc(N(CCO)CCO)ccc1-2)N(C)C (stereo not shown) [Compound 45],>15,>30,

# Next, values leading:
HDDA (g/100 g),Acetone (g/100 g),"solubility (in the UV curing ink formulation, about 10% of butanone solvent required to dissolve completely)",SMILES
>15,>30,,CCCCC1(CCCC)c2cc(C(=O)C(CC)(Cc3ccccc3)N(C)C)ccc2-c2ccc(N3CCOCC3)cc21 (stereo not shown) [Compound 14]
>15,>30,,CC(C)(C(=O)c1ccc2c(c1)Cc1cc(C(=O)C(C)(C)N3CCCCC3)ccc1-2)N1CCCCC1 [Compound 24]
>15,>30,,C=CCC1(CC=C)c2ccccc2-c2ccc(C(=O)C(CC)(Cc3ccccc3)N(C)C)cc21 (stereo not shown) [Compound 34]
>15,>30,,"CCC(Cc1ccccc1)(C(=O)c1ccc2c(c1)C(C)(C)c1cc(N3CCOCC3)ccc1-2)N(C)C (stereo not shown) [Compound 38, 2-benzyl-2-dimethylamino-9,9-dimethyl-1-(7-morpholinofluorenyl)butanone]"
>15,>30,,"C=CCC(CC)(C(=O)c1ccc2c(c1)C(C)(C)c1cc(N3CCCCC3)ccc1-2)N(C)C (stereo not shown) [Compound 39, 2-allyl-2-dimethylamino-9,9-dimethyl-2-(7-piperidinylfluorenyl)butanone]"
>15,>30,,"CCCCC1(CCCC)c2ccccc2-c2ccc(C(=O)C(CC)(Cc3ccccc3)N(C)C)cc21 (stereo not shown) [Compound 40, 2-benzyl-2-dimethylamino-9,9-dibutylfluorene-1-butanone]"
>15,>30,,"CCCCC1(CCCC)c2cc(C(=O)c3ccccc3)ccc2-c2ccc(C(=O)C(CC)(Cc3ccccc3)N(C)C)cc21 (stereo not shown) [Compound 41, 2-benzyl-2-dimethylamino-9,9-dibutyl-1-(7-benzoyl)butanone]"
5,17,relatively poor,"CCC(Cc1ccccc1)(C(=O)c1ccc(N2CCOCC2)cc1)N(C)C (stereo not shown) [Irgacure 369, 2-benzyl-2-dimethylamino-1-(4-morpholinophenyl)butanone, reference compound]"
11,24,,"CCC(Cc1ccc(C)cc1)(C(=O)c1ccc(N2CCOCC2)cc1)N(C)C (stereo not shown) [Irgacure 379, 2-(4-methylbenzyl)-2-dimethylamino-1-(4-morpholinophenyl)butanone, reference compound]"
